From ChEMBL document CHEMBL3991601, “The target landscape of clinical kinase drugs” (Science, 2017)
Activity calls are given as the source filed them.

Tests used:
[1] = target: Serine/threonine-protein kinase N2 (Homo sapiens, UniProt Q16513)
[2] = target: T1, NUAK family SNF1-like kinase 2 (Homo sapiens, UniProt Q9H093)
T1 sequence (Q9H093 whole entry): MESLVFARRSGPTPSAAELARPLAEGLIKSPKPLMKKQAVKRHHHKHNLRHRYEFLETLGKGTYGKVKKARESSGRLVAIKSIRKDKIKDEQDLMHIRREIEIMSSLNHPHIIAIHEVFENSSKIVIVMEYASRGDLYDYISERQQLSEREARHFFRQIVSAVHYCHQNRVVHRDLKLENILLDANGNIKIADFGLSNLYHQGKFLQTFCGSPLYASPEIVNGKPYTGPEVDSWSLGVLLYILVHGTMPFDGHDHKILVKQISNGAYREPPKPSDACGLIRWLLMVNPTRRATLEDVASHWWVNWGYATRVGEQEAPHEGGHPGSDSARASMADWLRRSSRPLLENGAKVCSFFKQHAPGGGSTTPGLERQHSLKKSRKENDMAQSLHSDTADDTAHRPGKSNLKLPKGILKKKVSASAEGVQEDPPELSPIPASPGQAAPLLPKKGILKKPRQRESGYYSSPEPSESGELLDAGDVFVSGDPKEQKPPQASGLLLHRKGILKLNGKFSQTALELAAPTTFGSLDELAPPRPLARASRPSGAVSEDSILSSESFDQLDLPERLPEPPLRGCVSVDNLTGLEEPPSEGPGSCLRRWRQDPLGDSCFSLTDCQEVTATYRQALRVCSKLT

Aurora kinase B = Aurora kinase B (Homo sapiens, UniProt Q96GD4)
[3] = target: T2, Serine/threonine-protein kinase D3 (Homo sapiens, UniProt O94806)
T2 sequence (O94806 whole entry): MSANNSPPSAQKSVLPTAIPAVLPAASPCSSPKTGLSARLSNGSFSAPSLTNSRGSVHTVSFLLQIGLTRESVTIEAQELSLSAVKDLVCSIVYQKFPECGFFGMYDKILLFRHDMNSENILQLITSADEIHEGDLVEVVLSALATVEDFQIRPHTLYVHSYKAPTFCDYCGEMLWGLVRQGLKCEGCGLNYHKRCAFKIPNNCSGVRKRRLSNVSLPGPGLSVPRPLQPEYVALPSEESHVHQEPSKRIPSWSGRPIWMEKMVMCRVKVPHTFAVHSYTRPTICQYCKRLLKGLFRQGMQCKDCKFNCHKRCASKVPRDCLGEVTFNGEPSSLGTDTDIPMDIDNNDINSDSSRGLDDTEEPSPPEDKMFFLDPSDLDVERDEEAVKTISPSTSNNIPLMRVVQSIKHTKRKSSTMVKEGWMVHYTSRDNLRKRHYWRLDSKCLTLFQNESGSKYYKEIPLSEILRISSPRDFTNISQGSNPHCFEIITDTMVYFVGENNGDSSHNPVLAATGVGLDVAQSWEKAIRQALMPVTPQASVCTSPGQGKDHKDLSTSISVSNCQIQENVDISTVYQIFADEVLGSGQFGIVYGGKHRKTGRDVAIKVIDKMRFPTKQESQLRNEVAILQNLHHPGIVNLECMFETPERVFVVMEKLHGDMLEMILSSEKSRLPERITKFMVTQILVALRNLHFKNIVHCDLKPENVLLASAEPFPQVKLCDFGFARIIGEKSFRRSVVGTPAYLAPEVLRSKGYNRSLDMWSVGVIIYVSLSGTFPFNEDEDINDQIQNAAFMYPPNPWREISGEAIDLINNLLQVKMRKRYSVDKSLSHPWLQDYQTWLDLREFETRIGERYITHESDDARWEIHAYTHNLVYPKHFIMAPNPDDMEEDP

[4] = target: Cyclin-dependent kinase 4 (Homo sapiens, UniProt P11802)
[5] = target: T3, Tyrosine--tRNA ligase, cytoplasmic (Homo sapiens, UniProt P54577)
T3 sequence (P54577 whole entry): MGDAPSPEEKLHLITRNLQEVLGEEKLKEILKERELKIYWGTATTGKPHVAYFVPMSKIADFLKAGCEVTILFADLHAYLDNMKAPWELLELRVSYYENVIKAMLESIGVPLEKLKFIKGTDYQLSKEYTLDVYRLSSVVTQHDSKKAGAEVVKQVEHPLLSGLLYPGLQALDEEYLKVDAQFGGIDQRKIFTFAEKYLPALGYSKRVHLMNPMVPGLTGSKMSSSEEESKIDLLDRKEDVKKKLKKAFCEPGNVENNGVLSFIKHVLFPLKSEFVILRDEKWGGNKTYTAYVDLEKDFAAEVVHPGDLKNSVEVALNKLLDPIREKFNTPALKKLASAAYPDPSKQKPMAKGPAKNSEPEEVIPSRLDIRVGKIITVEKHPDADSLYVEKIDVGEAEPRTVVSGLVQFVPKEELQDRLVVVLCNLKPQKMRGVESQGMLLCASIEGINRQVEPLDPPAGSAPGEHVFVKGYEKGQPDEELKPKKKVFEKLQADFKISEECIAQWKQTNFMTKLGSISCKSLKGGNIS

[6] = target: T4, STE20-related kinase adapter protein alpha (Homo sapiens, UniProt Q7RTN6)
T4 sequence (Q7RTN6 whole entry): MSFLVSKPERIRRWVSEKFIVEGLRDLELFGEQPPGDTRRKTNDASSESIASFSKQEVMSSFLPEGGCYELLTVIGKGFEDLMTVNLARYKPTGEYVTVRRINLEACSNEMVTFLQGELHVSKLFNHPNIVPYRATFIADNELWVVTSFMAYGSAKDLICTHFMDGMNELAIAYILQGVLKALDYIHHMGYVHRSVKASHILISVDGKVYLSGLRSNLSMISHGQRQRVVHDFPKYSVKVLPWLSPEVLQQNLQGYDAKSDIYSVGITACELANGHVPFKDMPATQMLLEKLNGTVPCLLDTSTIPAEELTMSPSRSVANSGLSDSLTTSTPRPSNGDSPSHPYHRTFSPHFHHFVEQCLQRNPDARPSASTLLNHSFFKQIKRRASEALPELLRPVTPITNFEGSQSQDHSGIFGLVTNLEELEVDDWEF
Further: in the data inactive means no Kd found up to 30 µM.

Cyclin-dependent kinase 4, sequence (P11802 whole entry): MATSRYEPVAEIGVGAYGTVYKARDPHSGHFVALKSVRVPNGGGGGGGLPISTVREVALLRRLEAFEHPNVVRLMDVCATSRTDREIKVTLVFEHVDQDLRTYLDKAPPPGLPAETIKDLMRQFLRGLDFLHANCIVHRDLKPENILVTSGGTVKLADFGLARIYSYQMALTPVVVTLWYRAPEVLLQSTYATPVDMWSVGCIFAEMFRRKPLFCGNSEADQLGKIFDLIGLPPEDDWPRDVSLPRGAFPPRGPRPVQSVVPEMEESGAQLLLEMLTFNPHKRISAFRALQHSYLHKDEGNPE
Serine/threonine-protein kinase N2, sequence (Q16513 whole entry): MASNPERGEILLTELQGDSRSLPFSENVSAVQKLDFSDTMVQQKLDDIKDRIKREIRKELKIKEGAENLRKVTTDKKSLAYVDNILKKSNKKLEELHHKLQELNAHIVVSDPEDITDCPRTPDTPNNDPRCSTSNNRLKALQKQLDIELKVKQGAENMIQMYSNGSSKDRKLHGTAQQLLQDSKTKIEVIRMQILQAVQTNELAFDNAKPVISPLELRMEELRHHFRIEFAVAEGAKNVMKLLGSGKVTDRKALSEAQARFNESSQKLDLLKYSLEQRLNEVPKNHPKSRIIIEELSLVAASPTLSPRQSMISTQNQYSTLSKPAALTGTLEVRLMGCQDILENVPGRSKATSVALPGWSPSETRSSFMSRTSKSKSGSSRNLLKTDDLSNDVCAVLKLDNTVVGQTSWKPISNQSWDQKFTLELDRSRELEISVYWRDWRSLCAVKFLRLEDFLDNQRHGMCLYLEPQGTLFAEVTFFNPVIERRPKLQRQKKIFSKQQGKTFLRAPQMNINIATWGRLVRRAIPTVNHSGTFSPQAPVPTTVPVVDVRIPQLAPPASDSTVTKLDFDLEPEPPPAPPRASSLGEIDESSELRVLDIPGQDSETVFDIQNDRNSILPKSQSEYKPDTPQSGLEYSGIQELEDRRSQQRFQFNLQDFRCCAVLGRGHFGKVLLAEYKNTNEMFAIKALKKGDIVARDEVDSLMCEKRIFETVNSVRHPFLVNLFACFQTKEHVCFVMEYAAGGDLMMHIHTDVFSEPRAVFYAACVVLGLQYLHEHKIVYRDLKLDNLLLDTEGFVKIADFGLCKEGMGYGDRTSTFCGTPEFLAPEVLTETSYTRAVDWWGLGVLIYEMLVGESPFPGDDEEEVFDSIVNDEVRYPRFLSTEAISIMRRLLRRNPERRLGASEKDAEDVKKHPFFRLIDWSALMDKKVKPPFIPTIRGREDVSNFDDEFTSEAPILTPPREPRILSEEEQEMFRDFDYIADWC
Aurora kinase B, sequence (Q96GD4 whole entry): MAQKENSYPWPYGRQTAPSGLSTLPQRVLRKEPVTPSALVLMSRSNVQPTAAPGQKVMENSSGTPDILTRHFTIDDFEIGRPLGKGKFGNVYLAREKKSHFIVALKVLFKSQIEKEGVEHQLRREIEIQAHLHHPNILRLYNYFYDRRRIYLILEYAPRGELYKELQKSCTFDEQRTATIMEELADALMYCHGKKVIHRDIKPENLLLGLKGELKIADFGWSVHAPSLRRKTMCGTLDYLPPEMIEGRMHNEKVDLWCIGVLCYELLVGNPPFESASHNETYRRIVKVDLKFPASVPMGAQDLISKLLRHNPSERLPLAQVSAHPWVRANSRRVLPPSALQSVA

Structure (SMILES) | Kd [1] | Kd [2] | Kd (Aurora kinase B) | Kd [3] | Kd [4] | Kd [5] | Kd [6]
CN1N=C(N)c2cn([C@@H]3O[C@H](COP(=O)(O)O)[C@@H](O)[C@H]3O)c3ncnc1c23 [TRICIRIBINE PHOSPHATE] | > 30 µM (inactive) | > 30 µM (inactive) | > 30 µM (inactive) | > 30 µM (inactive) | > 30 µM (inactive) | > 30 µM (inactive) | –
Cc1cc(Nc2cc(N3CCN(C)CC3)nc(/C=C/c3ccccc3)n2)n[nH]1 [ENMD-2076] | – | – | – | – | > 30 µM (inactive) | > 30 µM (inactive) | > 30 µM (inactive)
OCCn1cc(-c2cnc3nnn(Cc4ccc5ncccc5c4)c3n2)cn1 [PF-04217903] | > 30 µM (inactive) | > 30 µM (inactive) | – | – | > 30 µM (inactive) | > 30 µM (inactive) | > 30 µM (inactive)
O=C(Nc1cccc(Cl)c1)Nc1ncc(CCNc2ncnc3ccsc23)s1 [SNS-314] | – | > 30 µM (inactive) | – | – | > 30 µM (inactive) | > 30 µM (inactive) | > 30 µM (inactive)
Cc1nc(N)sc1-c1ccnc(Nc2ccc(N3CCOCC3)cc2)n1 [CYC-116] | – | 0.007 µM | – | – | – | > 30 µM (inactive) | > 30 µM (inactive)
CCS(=O)(=O)N1CC(CC#N)(n2cc(-c3ncnc4[nH]ccc34)cn2)C1 [BARICITINIB] | – | > 30 µM (inactive) | > 30 µM (inactive) | > 30 µM (inactive) | > 30 µM (inactive) | > 30 µM (inactive) | > 30 µM (inactive)
CCn1c(-c2nonc2N)nc2c(C#CC(C)(C)O)ncc(OC[C@H]3CCCNC3)c21 [GSK-690693] | – | – | – | – | – | > 30 µM (inactive) | > 30 µM (inactive)
O=C(O)[C@]1(Cc2cccc(Nc3nccs3)n2)CC[C@@H](Oc2cccc(Cl)c2F)CC1 [MK-5108] | > 30 µM (inactive) | > 30 µM (inactive) | – | > 30 µM (inactive) | > 30 µM (inactive) | > 30 µM (inactive) | > 30 µM (inactive)
CN1CCN(c2ccc3nc(-c4c(N)c5c(F)cccc5[nH]c4=O)[nH]c3c2)CC1 [DOVITINIB] | – | – | – | – | – | > 30 µM (inactive) | > 30 µM (inactive)
Nc1nc(N)c2nc(-c3cccc(O)c3)c(-c3cccc(O)c3)nc2n1 [TG100-115] | – | – | – | – | – | > 30 µM (inactive) | > 30 µM (inactive)
O=C(c1ccc(F)c(F)c1Nc1ccc(I)cc1F)N1CC(O)([C@@H]2CCCCN2)C1 [COBIMETINIB] | > 30 µM (inactive) | – | > 30 µM (inactive) | > 30 µM (inactive) | > 30 µM (inactive) | > 30 µM (inactive) | > 30 µM (inactive)
Cc1cc([C@@H](C)Nc2ccccc2C(=O)O)c2nc(N3CCOCC3)cc(=O)n2c1 [AZD-6482] | > 30 µM (inactive) | > 30 µM (inactive) | > 30 µM (inactive) | > 30 µM (inactive) | – | > 30 µM (inactive) | > 30 µM (inactive)
